The text below walks through data of patent publication US8158657B2, “Heterocycles substituted pyridine derivatives and antifungal agent containing thereof” (Eisai R&D Management Co., Ltd., priority 2005, dated 2012).

Assay [1] deals with C. albicans CAF2-1 strain. The experiment in a line: Anti-Candida activity, MIC measurement. The format is cell-based. As to conditions: CAF21STRAIN, C. albicans CAF2-1, RPMI1640, 42-48 hours at 35° C., visual inspection, read-out: Anti-Candida Activity (minimum inhibitory concentration, MIC). As for the experimental part: (§1) For the C. albicans CAF2-1 strain, a fungal suspension from a standing culture for 48 hours at 30° C. in a Sabouraud dextrose liquid culture medium (SDB) was diluted with RPMI1640 medium to adjust a fungal suspension of 1.2×10^3 cells/mL. For the A. fumigatus Tsukuba strain, −80° C. stored strain was diluted with RPMI1640 medium to adjust to a fungal suspension of 4.5×10^3 cells/mL.
(§2) Using a U-bottomed 96 well plate, 8 samples/plate (A to H) of sample dilution solutions were prepared. On the 2nd to 12th rows were dispensed 10 μL of dimethyl sulfoxide solution. Weighted sample was dissolved in dimethyl sulfoxide to prepare a 2.5 mg/mL solution, 20 μL of this solution was added to the first row of the prepared plate, and 12 steps of two-fold step dilutions (10 μL of solution+10 μL of dimethyl sulfoxide solution) were performed on the plate. This sample dilution solution was dispensed in the amount of 1 μL to a flat-bottomed 96 well plate for MIC measurement to prepare a sample dilution plate.
(§3) The fungal suspension prepared in (1) was used in the amount of 99 μL/well to inoculate the flat-bottomed 96 well plate containing 1 μL/well of the test compound dilution prepared in (2), and a standing culture was carried out aerobically for 42-48 hours at 35° C.

For assay [2], the system named is A. fumigatus Tsukuba strain. The experiment in a line: Anti-Aspergillus activity, MIC measurement. In kind it is cell-based. Particulars: RPMI1640, 42-48 hours at 35° C., visual inspection, read-out: Anti-Aspergillus Activity (minimum inhibitory concentration, MIC). As for the experimental part: as §1, §2, §3

In brackets after ≈: the same amount, converted by molar mass.

`Nc1ncccc1-c1cnn(Cc2ccc(COC3CCC3)cc2)c1` [Example 197, 3-(1-(4-Cyclobutoxymethyl-benzyl)-1H-pyrazol-4-yl)-pyridin-2-ylamine]: the MIC in assay [1] amounted to 3.13 µg/mL (≈ 9.36 µM); in assay [2] it was 1.56 µg/mL (≈ 4.66 µM).
The matching figures for `CCCCOc1cccc(Cc2cc(-c3ccc(N)nc3N)on2)c1` [Example 124, 3-(3-(3-Butoxy-benzyl)-isoxazol-5-yl)-pyridin-2,6-diamine]: 0.2 µg/mL (≈ 0.591 µM) and 0.39 µg/mL (≈ 1.15 µM).
In the same order, the values of `Nc1ncccc1-c1cc(Cc2ccc(CCc3ccccn3)cc2)no1` [Example 93, 3-(3-(4-(2-Pyridin-2-yl-ethyl)-benzyl)-isoxazol-5-yl)-pyridin-2-ylamine] are 0.2 µg/mL (≈ 0.561 µM) and 1.56 µg/mL (≈ 4.38 µM).
In the same order, the values of `Nc1ccc(-c2cc(Cc3ccc(Cc4ccc(Cl)o4)cc3)no2)cn1` [Example 182, 5-(3-(4-(5-Chloro-furan-2-ylmethyl)-benzyl)-isoxazol-5-yl)-pyridin-2-ylamine] are > 25 µg/mL and 0.2 µg/mL (≈ 0.547 µM).
Take `Nc1ccc(-c2cc(Cc3cccc(OCc4ccccn4)c3)no2)c(N)n1` [Example 118, 3-(3-(3-(Pyridin-2-ylmethoxy)-benzyl)-isoxazol-5-yl)-pyridin-2,6-diamine]: the MIC in assay [1] was found to be 0.78 µg/mL (≈ 2.09 µM); in assay [2], 3.13 µg/mL (≈ 8.38 µM).
The matching figures for `Cc1cc(COc2ccc(Cc3cc(-c4cccnc4N)on3)cc2)ccn1` [Example 47, 3-(3-(4-(2-Methyl-pyridin-4-ylmethoxy)-benzyl)-isoxazol-5-yl)-pyridin-2-ylamine]: 0.2 µg/mL (≈ 0.537 µM) and 0.39 µg/mL (≈ 1.05 µM).
Turning to `Cc1ccc(OCc2ccc(Cc3cc(-c4cccnc4N)on3)cc2)nc1` [Example 44, 3-(3-(4-(5-Methyl-pyridin-2-yloxymethyl)-benzyl)-isoxazol-5-yl)-pyridin-2-ylamine], the MIC in assay [1] and in assay [2] was 1.56 µg/mL (≈ 4.19 µM) each time.
For `Nc1ccc(-c2cc(Cc3ccc(OC4CCCC4)cc3)no2)c(N)n1` [Example 137, 3-(3-(4-Cyclopentyloxy-benzyl)-isoxazol-5-yl)-pyridin-2,6-diamine], the MIC came to 0.78 µg/mL (≈ 2.23 µM) in assay [1] and 1.56 µg/mL (≈ 4.45 µM) in assay [2].
The matching figures for `Nc1ccc(-c2cc(Cc3ccc(OCc4cccc(F)c4)cc3)no2)c(N)n1` [Example 19, 3-(3-(4-(3-Fluoro-benzyloxy)-benzyl)-isoxazol-5-yl)-pyridin-2,6-diamine]: 0.78 µg/mL (≈ 2 µM) and 0.39 µg/mL (≈ 0.999 µM).
As to `Nc1ccc(-c2cc(Cc3ccc(CCC4CCCO4)cc3)no2)c(N)n1` (stereo not shown) [Example 143], the values for the MIC in assay [1] and in assay [2] were 0.39 µg/mL (≈ 1.07 µM) and 0.78 µg/mL (≈ 2.14 µM), respectively.
For the compound `Nc1ccc(-c2cc(Cc3ccc(OCc4ccccc4)cn3)no2)c(N)n1` [Example 127, 3-(3-(5-Benzyloxy-pyridin-2-ylmethyl)-isoxazol-5-yl)-pyridin-2,6-diamine], the MIC in assay [1] is 0.78 µg/mL (≈ 2.09 µM); in assay [2], 1.56 µg/mL (≈ 4.18 µM).
In the same order, the values of `Nc1ccc(-c2cc(Cc3ccc(Oc4cncc(Cl)n4)cc3)no2)c(N)n1` [Example 215, 3-(3-(4-(6-Chloro-pyrazin-2-yloxy)-benzyl)-isoxazol-5-yl)-pyridin-2,6-diamine] are 0.39 µg/mL (≈ 0.988 µM) and 0.78 µg/mL (≈ 1.98 µM).
For the compound `Nc1ccc(-c2cc(Cc3ccc(OCc4ccccc4)nc3)no2)cn1` [Example 179, 5-(3-(6-Benzyloxy-pyridin-3-ylmethyl)-isoxazol-5-yl)-pyridin-2-ylamine], the MIC in assay [1] amounted to 0.78 µg/mL (≈ 2.18 µM); in assay [2] it was 0.39 µg/mL (≈ 1.09 µM).
As to `Nc1ncccc1-c1cc(Cc2ccc(OCc3ccncc3)cc2)no1` [Example 49, 3-(3-(4-(Pyridin-4-ylmethoxy)-benzyl)-isoxazol-5-yl)-pyridin-2-ylamine], the MIC in assay [1] is 0.05 µg/mL (≈ 0.14 µM); in assay [2], 0.39 µg/mL (≈ 1.09 µM).
The matching figures for `COc1cccc(COc2ccc(Cc3cc(-c4ccc(N)nc4N)on3)cc2)c1` [Example 162, 3-(3-(4-(3-Methoxy-benzyloxy)-benzyl)-isoxazol-5-yl)-pyridin-2,6-diamine]: 0.78 µg/mL (≈ 1.94 µM) and 0.39 µg/mL (≈ 0.969 µM).
The matching figures for `Nc1ccc(-c2cc(Cc3ccc(Oc4cccnc4)cc3)no2)c(N)n1` [Example 138, 3-(3-(4-(Pyridin-3-yloxy)-benzyl)-isoxazol-5-yl)-pyridin-2,6-diamine]: 0.78 µg/mL (≈ 2.17 µM) and 0.78 µg/mL (≈ 2.17 µM).
Turning to `Nc1ncccc1-c1cc(Cc2cccc(OCc3ccccc3)c2)no1` [Example 61, 3-(3-(3-Benzyloxy-benzyl)-isoxazol-5-yl)-pyridin-2-ylamine], the MIC in assay [1] was determined as 0.2 µg/mL (≈ 0.56 µM); in assay [2] it was 0.39 µg/mL (≈ 1.09 µM).
In the same order, the values of `Nc1ncccc1-c1cc(Cc2ccc(Oc3ccc(F)cc3)s2)no1` [Example 91, 3-(3-(5-(4-Fluoro-phenoxy)-thiophen-2-ylmethyl)-isoxazol-5-yl)-pyridin-2-ylamine] are 0.2 µg/mL (≈ 0.544 µM) and 0.1 µg/mL (≈ 0.272 µM).
The matching figures for `COc1cccc(COc2ccc(Cc3cc(-c4cccnc4N)on3)cc2)n1` [Example 99, 3-(3-(4-(6-Methoxy-pyridin-2-ylmethoxy)-benzyl)-isoxazol-5-yl)-pyridin-2-ylamine]: 3.13 µg/mL (≈ 8.06 µM) and 0.78 µg/mL (≈ 2.01 µM).
In the same order, the values of `Nc1ccc(-c2cc(Cc3cccc(Oc4ccccc4)c3)no2)c(N)n1` [Example 123, 3-(3-(3-Phenoxy-benzyl)-isoxazol-5-yl)-pyridin-2,6-diamine] are 0.2 µg/mL (≈ 0.558 µM) and 0.39 µg/mL (≈ 1.09 µM).
In the case of `Nc1ncccc1-c1cc(Cc2ccc(OCc3ccccn3)cc2)on1` [Example 189, 3-(5-(4-(Pyridin-2-ylmethoxy)-benzyl)-isoxazol-3-yl)-pyridin-2-ylamine], the results for the MIC in assay [1] and in assay [2] were 0.05 µg/mL (≈ 0.14 µM) and 0.2 µg/mL (≈ 0.558 µM), respectively.
Turning to `Nc1ncccc1-c1cc(Cc2ccc(Oc3cccc(F)c3)cc2)no1` [Example 81, 3-(3-(4-(3-Fluoro-phenoxy)-benzyl)-isoxazol-5-yl)-pyridin-2-ylamine], the MIC in assay [1] is 0.2 µg/mL (≈ 0.553 µM); in assay [2], 0.39 µg/mL (≈ 1.08 µM).
On to `Nc1ccc(-c2cc(Cc3ccc(OCc4ccncc4)cc3)no2)c(N)n1` [Example 107, 3-(3-(4-(Pyridin-4-ylmethoxy)-benzyl)-isoxazol-5-yl)-pyridin-2,6-diamine], for which the MIC in assay [1] and in assay [2] was 0.78 µg/mL (≈ 2.09 µM) in each case.
`Nc1ccc(-c2cc(Cc3ccc(Oc4cccc(F)c4)cc3)no2)c(N)n1` [Example 142, 3-(3-(4-(3-Fluoro-phenoxy)-benzyl)-isoxazol-5-yl)-pyridin-2,6-diamine]: the MIC in assay [1] and in assay [2] was 0.39 µg/mL (≈ 1.04 µM) each time.
In the case of `Nc1ncccc1-c1cc(Cc2ccc(COc3ccccc3)cc2)no1` [Example 86, 3-(3-(4-Phenoxymethyl-benzyl)-isoxazol-5-yl)-pyridin-2-ylamine], the results for the MIC in assay [1] and in assay [2] were 0.05 µg/mL (≈ 0.14 µM) and 0.2 µg/mL (≈ 0.56 µM), respectively.
In the same order, the values of `Cc1cccc(OCc2ccc(Cc3cc(-c4cccnc4N)on3)cc2)n1` [Example 3, 3-(3-(4-(6-Methyl-pyridin-2-yloxymethyl)-benzyl)-isoxazol-5-yl)-pyridin-2-ylamine] are 0.1 µg/mL (≈ 0.269 µM) and 0.78 µg/mL (≈ 2.09 µM).
In the same order, the values of `Nc1ncccc1-c1cnn(Cc2ccc(Oc3ccccc3)cc2)c1` [Example 34, 3-(1-(4-Phenoxy-benzyl)-1H-pyrazol-4-yl)-pyridin-2-ylamine] are 0.78 µg/mL (≈ 2.28 µM) and 0.39 µg/mL (≈ 1.14 µM).
The matching figures for `Nc1ccc(-c2cc(Cc3ccc(OCc4ccccn4)cc3F)no2)c(N)n1` [Example 158, 3-(3-(2-Fluoro-4-(pyridin-2-ylmethoxy)-benzyl)-isoxazol-5-yl)-pyridin-2,6-diamine]: 1.56 µg/mL (≈ 3.99 µM) and 3.13 µg/mL (≈ 8 µM).
For the compound `Nc1ncccc1-c1cc(Cc2ccc(Cc3ccccc3)nc2)no1` [Example 210, 3-(3-(6-Benzyl-pyridin-3-ylmethyl)-isoxazol-5-yl)-pyridin-2-ylamine], the MIC in assay [1] was 0.1 µg/mL (≈ 0.292 µM); in assay [2], 0.2 µg/mL (≈ 0.584 µM).
The matching figures for `Nc1ccc(-c2cc(Cc3ccc(CCc4ccccn4)cc3)no2)c(N)n1` [Example 159, 3-(3-(4-(2-Pyridin-2-yl-ethyl)-benzyl)-isoxazol-5-yl)-pyridin-2,6-diamine]: 0.78 µg/mL (≈ 2.1 µM) and 3.13 µg/mL (≈ 8.43 µM).
In the same order, the values of `C#CCOCc1ccc(Cn2cc(-c3cccnc3N)cn2)cc1` [Example 194, 3-(1-(4-Prop-2-ynyloxymethyl-benzyl)-1H-pyrazol-4-yl)-pyridin-2-ylamine] are 1.56 µg/mL (≈ 4.9 µM) and 3.13 µg/mL (≈ 9.83 µM).
In the case of `Cc1ccc(COc2ccc(Cc3cc(-c4ccc(N)nc4N)on3)cc2)nc1` [Example 101], the MIC in assay [1] and in assay [2] was 1.56 µg/mL (≈ 4.03 µM) in each case.
With `Nc1ccc(-c2cc(Cc3ccc(Br)cc3)no2)c(N)n1` [Example 220, 3-(3-(4-Bromo-benzyl)-isoxazol-5-yl)-pyridine-2,6-diamine], the MIC in assay [1] and in assay [2] was 6.25 µg/mL (≈ 18.1 µM) throughout.
In the case of `Nc1ncccc1-c1cc(Cc2ccc(Cc3ccc(F)cc3)o2)no1` [Example 208, 3-(3-(5-(4-Fluoro-benzyl)-furan-2-ylmethyl)-isoxazol-5-yl)-pyridin-2-ylamine], the figures for the MIC in assay [1] and in assay [2] were 6.25 µg/mL (≈ 17.9 µM) and 0.78 µg/mL (≈ 2.23 µM), respectively.
As to `Nc1ccc(-c2cc(Cc3ccc(Cc4ccc(F)cc4)o3)no2)c(N)n1` [Example 221, 3-(3-(5-(4-Fluoro-benzyl)-furan-2-ylmethyl)-isoxazol-5-yl)-pyridin-2,6-diamine], the MIC in assay [1] is 1.56 µg/mL (≈ 4.28 µM); in assay [2] it was 0.39 µg/mL (≈ 1.07 µM).
